From patent US9796711B2, “Substituted pyrazolo[3,4-b]pyridin-6-carboxylic acids and method of use” (AbbVie S.àr.l., priority 2015, dated 2017)

What was measured:
ΔF508-CFTR [1] = target: T1, ΔF508-CFTR (Homo sapiens, UniProt P13569, DEL508-508); test: CFTR cell surface levels using HRP-tagged ΔF508-CFTR expressing CFBE cells, in the presence of a co-corrector; assay type: cell-based; details: HRP-tagged ΔF508-CFTR expressing CFBE cells, in the presence of 3 μM co-corrector; for EC50: read-out: EC50
T1 construct: host or cells: CFBE41o-, doxycycline-inducible
T1 sequence (P13569 with tags, fused parts or gaps DEL508-508): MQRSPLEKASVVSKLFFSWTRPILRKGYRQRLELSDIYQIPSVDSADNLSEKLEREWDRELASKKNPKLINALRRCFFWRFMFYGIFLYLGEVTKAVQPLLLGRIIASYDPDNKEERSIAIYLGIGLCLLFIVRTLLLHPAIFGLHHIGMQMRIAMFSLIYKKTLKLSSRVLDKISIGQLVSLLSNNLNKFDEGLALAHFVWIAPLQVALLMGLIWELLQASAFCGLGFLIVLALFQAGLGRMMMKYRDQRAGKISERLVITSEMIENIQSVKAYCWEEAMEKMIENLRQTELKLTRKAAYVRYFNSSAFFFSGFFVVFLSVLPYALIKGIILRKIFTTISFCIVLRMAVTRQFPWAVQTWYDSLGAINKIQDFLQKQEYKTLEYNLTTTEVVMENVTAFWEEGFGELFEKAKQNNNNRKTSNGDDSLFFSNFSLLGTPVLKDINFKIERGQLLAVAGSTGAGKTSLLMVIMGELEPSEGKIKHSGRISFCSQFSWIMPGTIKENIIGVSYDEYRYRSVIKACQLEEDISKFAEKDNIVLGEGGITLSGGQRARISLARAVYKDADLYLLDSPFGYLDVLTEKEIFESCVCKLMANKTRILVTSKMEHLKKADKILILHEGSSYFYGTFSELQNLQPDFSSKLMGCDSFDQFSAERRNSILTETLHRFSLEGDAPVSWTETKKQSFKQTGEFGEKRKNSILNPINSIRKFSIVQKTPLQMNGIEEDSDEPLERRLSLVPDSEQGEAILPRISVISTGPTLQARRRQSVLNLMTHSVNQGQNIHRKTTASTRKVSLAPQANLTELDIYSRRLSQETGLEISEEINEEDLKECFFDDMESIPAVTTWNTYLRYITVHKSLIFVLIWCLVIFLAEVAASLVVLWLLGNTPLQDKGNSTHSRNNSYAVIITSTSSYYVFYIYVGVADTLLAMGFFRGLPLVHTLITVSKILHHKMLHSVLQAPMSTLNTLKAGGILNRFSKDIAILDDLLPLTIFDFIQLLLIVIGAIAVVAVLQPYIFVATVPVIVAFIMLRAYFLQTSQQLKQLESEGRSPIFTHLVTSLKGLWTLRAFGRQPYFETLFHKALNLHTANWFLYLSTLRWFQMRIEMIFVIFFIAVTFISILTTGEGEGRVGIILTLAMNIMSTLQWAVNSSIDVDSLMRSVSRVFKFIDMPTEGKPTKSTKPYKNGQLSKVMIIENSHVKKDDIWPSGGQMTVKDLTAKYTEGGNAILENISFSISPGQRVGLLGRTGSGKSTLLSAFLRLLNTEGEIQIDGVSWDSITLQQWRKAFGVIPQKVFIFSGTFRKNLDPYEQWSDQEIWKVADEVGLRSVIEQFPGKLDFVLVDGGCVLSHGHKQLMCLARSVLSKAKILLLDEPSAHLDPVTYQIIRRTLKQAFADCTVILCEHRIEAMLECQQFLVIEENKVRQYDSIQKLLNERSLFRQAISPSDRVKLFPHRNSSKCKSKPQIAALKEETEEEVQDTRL
How it was run: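 Cells were seeded with 0.5 μg/mL doxycycline and held 68 h at 37 °C. Test compounds plus 3 μM co-corrector (final 0.1% DMSO) were then added for 20 h at 33 °C. Washed cells received HRP substrate, and luminescence was normalized between DMSO and 3 μM co-corrector controls.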

ΔF508-CFTR [2] = target: T1, ΔF508-CFTR; test: CFTR cell surface levels using HRP-tagged ΔF508-CFTR expressing CFBE cells, intrinsic corrector capacity; assay type: cell-based; details: HRP-tagged ΔF508-CFTR expressing CFBE cells, intrinsic corrector capacity (no co-corrector), 33° C., 20 hours; for EC50: read-out: EC50
How it was run: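 Here the cells express ΔF508-CFTR with horseradish peroxidase inserted in extracellular loop 4, so only rescued channel at the surface gives luminescent signal. Compounds act on their own, 20 h at the reduced temperature of 33 °C; values are percent activity relative to DMSO and a 3 μM corrector.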

Row | Compound | % Activation (ΔF508-CFTR [1]) [%] | EC50 (ΔF508-CFTR [1]) [nM] | % Activation (ΔF508-CFTR [2]) [%] | EC50 (ΔF508-CFTR [2]) [nM]
1 | O=C(O)c1cc(N2CCC(N3CCOCC3)CC2)c2c(C3CCC3)nn(-c3ccc(C(F)(F)F)cc3)c2n1 [compound 823, 3-cyclobutyl-4-[4-(morpholin-4-yl)piperidin-1-yl]-1-[4-(trifluoromethyl)phenyl]-1H-pyrazolo[3,4-b]pyridine-6-carboxylic acid] | 375.2 | 147 | 188.7 | 258
2 | Cc1cc(-n2nc(C3CCC3)c3c(N4CCC(N5CCOCC5)CC4)cc(C(=O)O)nc32)ccc1F [compound 824, 3-cyclobutyl-1-(4-fluoro-3-methylphenyl)-4-[4-(morpholin-4-yl)piperidin-1-yl]-1H-pyrazolo[3,4-b]pyridine-6-carboxylic acid] | 535.65 | 277 | 338.9 | 180
3 | O=C(O)c1cc(N2CCC(N3CCOCC3)CC2)c2c(C3CCC3)nn(-c3cccc(F)c3)c2n1 [compound 825, 3-cyclobutyl-1-(3-fluorophenyl)-4-[4-(morpholin-4-yl)piperidin-1-yl]-1H-pyrazolo[3,4-b]pyridine-6-carboxylic acid] | 455.85 | 144 | 289 | 207
4 | O=C(O)c1cc(N2CCC(N3CCOCC3)CC2)c2c(C3CCC3)nn(-c3cccc(C(F)(F)F)c3)c2n1 [compound 826, 3-cyclobutyl-4-[4-(morpholin-4-yl)piperidin-1-yl]-1-[3-(trifluoromethyl)phenyl]-1H-pyrazolo[3,4-b]pyridine-6-carboxylic acid] | 528.15 | 102 | 314.4 | 157
5 | O=C(O)c1cc(N2CCC(CN3CC(F)C3)CC2)c2c(C3CCC3)nn(-c3ccccc3)c2n1 [compound 827, 3-cyclobutyl-4-{4-[(3-fluoroazetidin-1-yl)methyl]piperidin-1-yl}-1-phenyl-1H-pyrazolo[3,4-b]pyridine-6-carboxylic acid] | 453.25 | 93 | 265.4 | 257
6 | O=C(O)c1cc(N2CCC(CN3CCC(F)(F)C3)CC2)c2c(C3CCC3)nn(-c3ccccc3)c2n1 [compound 828, 3-cyclobutyl-4-{4-[(3,3-difluoropyrrolidin-1-yl)methyl]piperidin-1-yl}-1-phenyl-1H-pyrazolo[3,4-b]pyridine-6-carboxylic acid] | 518.35 | 47.9 | 283.5 | 83.2
7 | COC1CN(CC2CCN(c3cc(C(=O)O)nc4c3c(C3CCC3)nn4-c3ccccc3)CC2)C1 [compound 829, 3-cyclobutyl-4-{4-[(3-methoxyazetidin-1-yl)methyl]piperidin-1-yl}-1-phenyl-1H-pyrazolo[3,4-b]pyridine-6-carboxylic acid] | 411.7 | 344 | 170.7 | 381
8 | O=C(O)c1cc(N2CCC(CN3CCCC(F)(F)C3)CC2)c2c(C3CCC3)nn(-c3ccccc3)c2n1 [compound 830, 3-cyclobutyl-4-{4-[(3,3-difluoropiperidin-1-yl)methyl]piperidin-1-yl}-1-phenyl-1H-pyrazolo[3,4-b]pyridine-6-carboxylic acid] | 588.2 | 63.2 | 353.9 | 115
9 | COCC1CN(CC2CCN(c3cc(C(=O)O)nc4c3c(C3CCC3)nn4-c3ccccc3)CC2)C1 [compound 831, 3-cyclobutyl-4-(4-{[3-(methoxymethyl)azetidin-1-yl]methyl}piperidin-1-yl)-1-phenyl-1H-pyrazolo[3,4-b]pyridine-6-carboxylic acid] | 402.5 | 407 | 231.3 | 1460
10 | O=C(O)c1cc(N2CCC(CN3CC[C@@H](F)C3)CC2)c2c(C3CCC3)nn(-c3ccccc3)c2n1 [compound 832, 3-cyclobutyl-4-(4-{[(3R)-3-fluoropyrrolidin-1-yl]methyl}piperidin-1-yl)-1-phenyl-1H-pyrazolo[3,4-b]pyridine-6-carboxylic acid] | 526.6 | 1070 | 250.5 | 151
11 | O=C(O)c1cc(N2CCC(CN3CC[C@H](F)C3)CC2)c2c(C3CCC3)nn(-c3ccccc3)c2n1 [compound 833, 3-cyclobutyl-4-(4-{[(3S)-3-fluoropyrrolidin-1-yl]methyl}piperidin-1-yl)-1-phenyl-1H-pyrazolo[3,4-b]pyridine-6-carboxylic acid] | 443.15 | 142 | 231.9 | 187
12 | O=C(O)c1cc(N2CCC(CN3CCCOCC3)CC2)c2c(C3CCC3)nn(-c3ccccc3)c2n1 [compound 834, 3-cyclobutyl-4-{4-[(1,4-oxazepan-4-yl)methyl]piperidin-1-yl}-1-phenyl-1H-pyrazolo[3,4-b]pyridine-6-carboxylic acid] | 403 | 114 | 227.9 | 241
13 | O=C(O)c1cc(N2CCC(CN3CC(OCC(F)F)C3)CC2)c2c(C3CCC3)nn(-c3ccccc3)c2n1 [compound 835, 3-cyclobutyl-4-(4-{[3-(2,2-difluoroethoxy)azetidin-1-yl]methyl}piperidin-1-yl)-1-phenyl-1H-pyrazolo[3,4-b]pyridine-6-carboxylic acid] | 466.9 | 67.6 | 291.5 | 163
14 | O=C(O)c1cc(N2CCC(CN3CC4(CCCOC4)C3)CC2)c2c(C3CCC3)nn(-c3ccccc3)c2n1 [compound 836, 3-cyclobutyl-4-{4-[(6-oxa-2-azaspiro[3.5]nonan-2-yl)methyl]piperidin-1-yl}-1-phenyl-1H-pyrazolo[3,4-b]pyridine-6-carboxylic acid] | 325.3 | 409 | 137.3 | 486
15 | O=C(O)c1cc(N2CCC(CN3CCN4C[C@@H](F)C[C@H]4C3)CC2)c2c(C3CCC3)nn(-c3ccccc3)c2n1 [compound 838, 3-cyclobutyl-4-(4-{[(7S,8aS)-7-fluorohexahydropyrrolo[1,2-a]pyrazin-2(1H)-yl]methyl]piperidin-1-yl)-1-phenyl-1H-pyrazolo[3,4-b]pyridine-6-carboxylic acid] | 411.8 | 115 | 240.3 | 269
16 | O=CN1CCCN(CC2CCN(c3cc(C(=O)O)nc4c3c(C3CCC3)nn4-c3ccccc3)CC2)CC1 [compound 839] | 437.3 | 180 | 275.7 | 921
17 | O=C(O)c1cc(N2CCC(CN3CCC4(CC3)COC4)CC2)c2c(C3CCC3)nn(-c3ccccc3)c2n1 [compound 840, 3-cyclobutyl-4-{4-[(2-oxa-7-azaspiro[3.5]nonan-7-yl)methyl]piperidin-1-yl}-1-phenyl-1H-pyrazolo[3,4-b]pyridine-6-carboxylic acid] | 368.8 | 250 | 164.4 | 400
18 | COC1CCN(CC2CCN(c3cc(C(=O)O)nc4c3c(C3CCC3)nn4-c3ccccc3)CC2)CC1 [compound 841, 3-cyclobutyl-4-{4-[(4-methoxypiperidin-1-yl)methyl]piperidin-1-yl}-1-phenyl-1H-pyrazolo[3,4-b]pyridine-6-carboxylic acid] | 457.1 | 314 | 225 | 532
19 | O=C(O)c1cc(N2CCC(CN3CCC4(COC4)C3)CC2)c2c(C3CCC3)nn(-c3ccccc3)c2n1 [compound 842, 3-cyclobutyl-4-{4-[(2-oxa-6-azaspiro[3.4]octan-6-yl)methyl]piperidin-1-yl}-1-phenyl-1H-pyrazolo[3,4-b]pyridine-6-carboxylic acid] | 370 | 582 | 162.5 | 628
20 | O=CN1CCN(CC2CCN(c3cc(C(=O)O)nc4c3c(C3CCC3)nn4-c3ccccc3)CC2)CC1 [compound 843, 3-cyclobutyl-4-{4-[(4-formylpiperazin-1-yl)methyl]piperidin-1-yl}-1-phenyl-1H-pyrazolo[3,4-b]pyridine-6-carboxylic acid] | 499.3 | 207 | 264.2 | 366
21 | O=C(O)c1cc(N2CCC(CN3CC4CC4C3)CC2)c2c(C3CCC3)nn(-c3ccccc3)c2n1 (stereo not shown) [compound 844, 4-{4-[(3-azabicyclo[3.1.0]hexan-3-yl)methyl]piperidin-1-yl}-3-cyclobutyl-1-phenyl-1H-pyrazolo[3,4-b]pyridine-6-carboxylic acid] | 429.2 | 206 | 184.9 | 210
22 | CN1C(=O)CN(CC2CCN(c3cc(C(=O)O)nc4c3c(C3CCC3)nn4-c3ccccc3)CC2)CC12COC2 [compound 845, 3-cyclobutyl-4-{4-[(5-methyl-6-oxo-2-oxa-5,8-diazaspiro[3.5]nonan-8-yl)methyl]piperidin-1-yl}-1-phenyl-1H-pyrazolo[3,4-b]pyridine-6-carboxylic acid] | 499.6 | 1080 | 273.7 | 1470
